According to patent US11142546B2, “Neuropeptide S receptor (NPSR) agonists” (Research Triangle Institute, priority 2016, dated 2021):

Target: T1, NPSR-C-Alt (Homo sapiens, UniProt Q6W5P4)
T1 sequence (Q6W5P4 1-377 isoform Q6W5P4-4): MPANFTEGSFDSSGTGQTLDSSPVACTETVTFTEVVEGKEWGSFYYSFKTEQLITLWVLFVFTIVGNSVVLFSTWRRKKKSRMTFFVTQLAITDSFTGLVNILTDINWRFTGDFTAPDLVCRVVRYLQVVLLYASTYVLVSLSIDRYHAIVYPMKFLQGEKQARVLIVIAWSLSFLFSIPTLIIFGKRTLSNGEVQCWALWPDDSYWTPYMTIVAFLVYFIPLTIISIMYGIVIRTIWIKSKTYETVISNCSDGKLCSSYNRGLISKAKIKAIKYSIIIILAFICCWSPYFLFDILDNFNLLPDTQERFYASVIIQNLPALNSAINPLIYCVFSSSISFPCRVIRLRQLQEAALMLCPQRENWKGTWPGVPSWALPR
Assay: Functional assay of NPS receptor isoforms
Format: cell-based
Conditions: least potent at NPSR-C-Alt
Description: The neuropeptide S receptor has at least three known isoforms including the wild type NPS Asn^107, the NPS Asn107Ile and NPS C-Alt. Since each variant could potentially have functional difference, the agonist sensitivity of each isoform was evaluated.

Row | Compound | potency at NPSR-C-Alt, fold lower versus the 107I variant [fold]
1 | hNPS: Human neuropeptide S, 20 residue peptide with the primary sequence SFRNGVGTGMKKTSFQRAKS (SEQ ID NO: 1) (Human) | 30

Target: T2, human NPS receptor variants (NPS Ile107 and Asn107) (Homo sapiens, UniProt Q6W5P4)
T2 sequence (Q6W5P4 1-371 N107I): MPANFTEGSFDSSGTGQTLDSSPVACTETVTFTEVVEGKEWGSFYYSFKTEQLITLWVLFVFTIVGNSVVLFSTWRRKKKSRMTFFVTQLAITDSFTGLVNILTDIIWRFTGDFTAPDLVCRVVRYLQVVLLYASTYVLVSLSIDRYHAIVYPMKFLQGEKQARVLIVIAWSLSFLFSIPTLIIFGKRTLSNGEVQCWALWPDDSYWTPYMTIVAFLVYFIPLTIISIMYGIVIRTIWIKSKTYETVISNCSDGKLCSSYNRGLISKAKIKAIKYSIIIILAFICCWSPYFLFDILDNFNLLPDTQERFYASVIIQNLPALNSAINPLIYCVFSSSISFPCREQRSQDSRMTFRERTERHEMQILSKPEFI
Assay: Functional determination of EC50 by calcium mobilization in RD-HGA16 CHO cells overexpressing the NPS receptor
Format: cell-based
Conditions: FlexStation, mean of at least three independent experiments, receptor variant not given
Excerpt: Functional Determinations of EC50: Identification of functional agonists at the NPS receptor was done utilizing RD-HGA16 cells (Molecular Devices), a Chinese Hamster Ovary cell line stably expressing the promiscuous Gq-protein Gα16. RD-HGA16 cells were engineered to stably overexpress the NPS receptor. Two individual cell lines were created that stably express one of two human NPS receptor variants (NPS Ile107 and Asn107). Cells were loaded with a calcium sensitive dye (Molecular Devices) for 1 h at 370 C and compounds were assayed in separate experiments for intrinsic activity as measured by increased fluorescence intensity as a marker of mobilization of internal calcium stores using a FlexStation fluorescence plate reader. Compounds were run as 8-point full log or half log concentration curves in duplicate in order to determine the EC50 of the test compound. Each compound was tested in at least three independent experiments. A three-parameter logistic equation was fit to the concentration response data with Prism Software (v5 for Windows, GraphPad Software; San Diego, Calif.) to calculate the EC50 values. The data represent the mean±SEM from at least three independent experiments. Table 1 lists the EC50 for certain compounds of Formula I or Formula II.

Row | Compound | EC50 [nM]
2 | NC(=O)[C@H]1CCCC[C@@H]1NC(=O)CNC(=O)C(Cc1ccccc1)c1ccccc1 (some centres unmarked) [Compound R06039-657, (1R/S,2S/R)-2-(2-(2,3-diphenylpropanamido)acetamido)cyclohexanecarboxamide] | 901
3 | NC(=O)[C@H]1CCCC[C@@H]1NC(=O)CNC(=O)C(Cc1ccccc1)Cc1ccccc1 (racemic) [Compound R06039-656, (1R/S,2S/R)-2-(2-(2-benzyl-3-phenylpropanamido)acetamido)cyclohexanecarboxamide] | 1020
4 | NC(=O)[C@H]1CCCC[C@@H]1NC(=O)CNC(=O)/C=C/c1ccccc1 (racemic) [Compound R06039-655, (1R/S,2S/R)-2-(2-cinnamamidoacetamido)cyclohexanecarboxamide] | 2110
5 | NC(=O)[C@@H]1CCCC[C@H]1NC(=O)CNC(=O)C(CCC1CCCCC1)Cc1ccccc1 (relative stereo) [Compound R06039-682, Trans-2-(2-(2-Benzyl-4-cyclohexylbutanamido)acetamido)cyclohexanecarboxamide] | 894

Next, values leading:

Row | EC50 [nM] | Compound
6 | 94 | NC(=O)[C@H]1CCCC[C@@H]1OC(=O)CNC(=O)[C@H](Cc1ccccc1)NC(=O)c1ccccc1 [Compound R06039-636, (1S,2S)-2-carbamoylcyclohexyl-2-[(2S)-3-phenyl-2-(phenylformamido)propanamido]acetate]
7 | 213 | NC(=O)[C@@H]1CCCC[C@H]1NC(=O)CNC(=O)/C(=C/c1ccccc1)CCc1ccccc1 (relative stereo) [Compound R06039-675, Trans-2-(2-((E)-2-Benzylidene-4-phenylbutanamido)acetamido)cyclohexanecarboxamide]
8 | 77 | NCCCC[C@H](NC(=O)C(CCc1ccccc1)Cc1ccccc1)C(=O)NC1CCCCC1C(N)=O (stereo partly drawn) [Compound R06039-693, 2-[(2S)-6-amino-2-(2-benzyl-4-phenylbutanamido)hexanamido]cyclohexane-1-carboxamide]
9 | 91 | NCCCC[C@H](NC(=O)C(CCc1ccccc1)Cc1ccccc1)C(=O)NC1C2CCC(CC2)C1C(N)=O (stereo partly drawn) [Compound R06039-696, 3-[(2S)-6-amino-2-(2-benzyl-4-phenylbutanamido)hexanamido]bicyclo[2.2.2]octane-2-carboxamide]
10 | 93 | NC(=O)C1C2CCC(CC2)C1NC(=O)CNC(=O)C(CCc1ccccc1)Cc1ccccc1 (centres unmarked) [Compound R06039-691, 3-[2-(2-Benzyl-4-phenylbutanamido)acetamido]bicyclo[2.2.2]octane-2-carboxamide]
11 | 169 | NC(=O)[C@@H]1CCCC[C@H]1NC(=O)CNC(=O)[C@H](Cc1ccccc1)OCc1ccccc1 [Compound R06039-641, Trans-2-(2-((S)-2-(benzyloxy)-3-phenylpropanamido)acetamido)cyclohexanecarboxamide]
